Values quoted from earlier work as cited in PMC7559897, “Designed Antimicrobial Peptides Against Trauma-Related Cutaneous Invasive Fungal Wound Infections” (Journal of Fungi, 2020).

Experiments:
S. aureus = details: subinhibitory concentrations, growth at higher concentrations; cited from earlier work
Source text: (§1) The rapid destruction of pathogenic cells by dAMPs infers a theoretical reduced likelihood of developing bacterial resistance. However, to confirm this, dAMPs were serially passaged against Candida and against both P. aeruginosa and S. aureus at subinhibitory concentrations to ascertain whether resistance, assessed by growth at higher concentrations, occurs. Resistance was not observed.

P. aeruginosa = details: subinhibitory concentrations, growth at higher concentrations; cited from earlier work
Source text: as §1

For CCC[C@@H]1C[C@@H](C(=O)N[C@@H]([C@H]2O[C@H](SC)[C@H](O)[C@@H](O)[C@H]2O)[C@H](C)Cl)N(C)C1 [clindamycin], the “resistance during serial passaging against S. aureus” value (S. aureus) is given as “strong resistance”.

For CNC(C)C1CCC(N)C(OC2C(N)CC(N)C(OC3OCC(C)(O)C(NC)C3O)C2O)O1 (centres unmarked) [Gentamicin], the “resistance during serial passaging against P. aeruginosa” value (P. aeruginosa) is listed as “strong resistance”.
